Experimental data published in article PMC9939733 (The Journal of Biological Chemistry, 2023).
Changes are numbered by the printed parent chain. Where “and” joins values, the source holds several entries; their conditions need not be identical. Identical values can stand only once.

Columns and labels:
Format in all cases: biochemical
[1] = target: T1, R172K IDH2 (Homo sapiens, UniProt P48735, R172K); test: Steady-state kinetics, absorbance assay; conditions: 0.03 μM enzyme, 50 μM NADPH, 20 mM MgCl2, pH 8.0
T1 construct: made in house; host or cells: Sf21 insect cells (cell pellets prepared at Evotec)
T1 sequence (P48735 40-452 R172K): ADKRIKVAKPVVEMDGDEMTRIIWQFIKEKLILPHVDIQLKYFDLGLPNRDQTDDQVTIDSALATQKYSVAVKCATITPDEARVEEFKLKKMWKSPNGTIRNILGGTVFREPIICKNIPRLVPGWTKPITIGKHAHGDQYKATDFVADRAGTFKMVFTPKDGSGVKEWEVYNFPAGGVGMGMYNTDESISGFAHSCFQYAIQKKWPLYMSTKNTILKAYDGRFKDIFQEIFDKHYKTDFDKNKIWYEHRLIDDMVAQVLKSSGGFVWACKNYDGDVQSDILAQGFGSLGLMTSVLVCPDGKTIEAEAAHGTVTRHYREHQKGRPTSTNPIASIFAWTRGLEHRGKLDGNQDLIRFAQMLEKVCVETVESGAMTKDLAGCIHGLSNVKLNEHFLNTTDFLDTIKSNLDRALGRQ
Method: (§1) Compounds were dispensed using a CyBio SDW-CW CyBi-Well Simultaneous Pipettor and assay started using a ThermoFisher Multidrop Combi reagent dispenser.
(§2) Reactions were performed as technical duplicates, and all assays were carried out in two independent duplicates.

[2] = target: R132H IDH1 (Homo sapiens, UniProt O75874, R132H); test: Steady-state kinetics, absorbance assay; parameters: made in house; host or cells: Escherichia coli BL21(DE3) pLyS
R132H IDH1, sequence (O75874 whole entry R132H): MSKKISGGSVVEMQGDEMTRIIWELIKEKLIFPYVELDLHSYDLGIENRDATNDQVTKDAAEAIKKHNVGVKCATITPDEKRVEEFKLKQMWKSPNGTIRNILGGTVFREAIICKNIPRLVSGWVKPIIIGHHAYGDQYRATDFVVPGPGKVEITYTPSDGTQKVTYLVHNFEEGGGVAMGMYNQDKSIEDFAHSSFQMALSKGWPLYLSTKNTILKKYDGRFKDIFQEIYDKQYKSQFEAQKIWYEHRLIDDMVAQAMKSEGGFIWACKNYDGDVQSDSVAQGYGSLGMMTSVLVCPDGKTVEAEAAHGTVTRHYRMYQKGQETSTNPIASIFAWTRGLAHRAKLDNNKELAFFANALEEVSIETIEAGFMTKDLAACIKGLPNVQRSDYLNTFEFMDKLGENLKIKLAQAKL
Method: as §1, §2

[3] = target: T2, R140Q IDH2 (Homo sapiens, UniProt P48735, R140Q); test: Absorbance assay, variant activity in the presence of equimolar 2OG (inhibition screen); conditions: 6.0 mM 2OG and 6.0 mM test compound, 0.03 μM R140Q IDH2, 50 μM NADPH
T2 construct: made in house; host or cells: Sf21 insect cells (cell pellets prepared at Evotec)
T2 sequence (P48735 40-452 R140Q): T1 sequence (P48735 40-452 R172K) with R101Q, K133R
In short: (§3)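 Compound was added to all wells at once with a multichannel pipettor. Reagent was then dispensed to start the reaction. Every condition was done in four technical replicates.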

[4] = target: T1, R172K IDH2; test: as above; conditions: 1.0 mM 2OG and 1.0 mM test compound, 0.03 μM R172K IDH2, 50 μM NADPH
In short: as §3

[5] = 0.03 μM enzyme, 50 μM NADPH, 20 mM MgCl2, pH 8.0

Kmapp [1]: 0.35 ± 0.04 mM
kcatapp [1]: 0.72 ± 0.04 s⁻¹ and 0.5 to 0.7 s⁻¹
Kmapp [2, 5]: ~ 0.85 mM and 0.85 ± 0.19 mM and 0.85 mM
kcatapp [2, 5]: 0.72 ± 0.04 s⁻¹ and 0.5 to 0.7 s⁻¹
Vmax ([2]; experimental value used for Michaelis-Menten simulation, Fig. 3H): 1.3 µM/min
activity [%] (%-substrate conversion after 20 min incubation) [3]: 100%
activity [%] (%-substrate conversion after 20 min incubation) [4]: 100%
SMILES: O=C(O)CCC(=O)C(=O)O [2OG, 2-oxoglutarate, reference compound]
